Measured values as given in patent publication US20040253576A1 (priority 2003, published 2004).
Entries after “also recorded” stand apart in the source; their conditions may differ. Read-outs that look alike come from different tables or passages of the source.

Legend:
[1] = system: MSNs from the NAcb shell; type: cell-based, Sprague-Dawley rats; settings: for effect on DA-mediated changes in spike firing / effect on spike firing, intracellular perfusion alone: 1 μM, intracellular perfusion; for effect on increase in spike firing elicited by D1/D2 co-activation: dialysis of neurons; for effect on activation of spike firing by forskolin: peptide in intracellular solution
[2] = system: total potassium currents, comprised of IAs, delayed-rectifier, and non-inactivating potassium currents; assay: voltage-clamp measurement of total evoked potassium current; type: cell-based, Sprague-Dawley rats
[3] = system: MSNs from the NAcb shell
Experimental: Patch-clamping was performed using visualized infrared-DIC with 2.5 to 3.5 MΩ electrodes. Current pulses were applied using Clampex 8.0 and an Axo-1D patch amplifier in current-clamp mode (Axon Instruments, Foster City, Calif.). Upon breaking into neurons, the resting membrane potentials were between −95 and −80 mV. […] Series resistance correction was 15-20 MΩ. To record EPSPs, a bipolar stimulating electrode was placed ˜100 μM lateral to the recording electrode. Afferents were stimulated with 10 pulses at 20 Hz (20 μs) every 30 seconds using a Master 8 (AMPI, Jerusalem, Israel), and EPSPs were recorded using Clampex in current-clamp mode.
We also performed a within-cell comparison of the spike firing change and the change in input resistance or Vm-rest.

Nc1ccncc1 [4-AP, 4-aminopyridine]
effect on DA-mediated enhancement of spike firing (occlusion) ([1]; 60 μM pre-exposure): significantly occluded the effects of DA | effect on spike firing ([1]; 5-60 μM): increased spike firing in a dose-dependent manner; also recorded: significantly enhanced spike firing | change in spike firing with DA after pre-exposure to IAs inhibitor ([1]; inhibitor 10 μM): 11.4+/−5.1% | effect on potassium current evoked by a 300 ms pulse to 0 mV ([2]; 10 μM): small but significant inhibition

NCCc1ccc(O)c(O)c1 [DA, Dopamine]
effect on spike firing [1]: significantly and reversibly elevated spike firing | enhancement in spike firing by DA with calcium channels blocked ([1]; pre-incubation with ω-conotoxin GVIA 500 nM and ω-agatoxin IVA 250 nM, continuous nifedipine 30 μM): 24.0+/−5.0% | effect on potassium current evoked by a 300 ms pulse to 0 mV ([2]; 75 μM): small but significant inhibition | effect on input resistance (R-input) [3]: no significant changes | effect on resting membrane potential (Vm-rest) [3]: no significant changes

CCCN1CCc2cccc3c2[C@H]1Cc1ccc(O)c(O)c1-3 [NPA, propylnorapomorphine]
effect on spike firing, agonist alone ([1]; 3 μM, alone): not altered

Nc1ncnc2c1ncn2[C@@H]1O[C@@H]2CO[P@@](O)(=S)O[C@H]2[C@H]1O [Rp-cAMPS]
effect on spike firing when added during the DA response ([1]; 100 μM, during plateau DA response): significantly reduced spike firing to pre-DA levels

CN1CCc2cc(Cl)c(O)cc2[C@@H](c2ccccc2)C1 [SCH 23990]
change in spike firing with DA after pre-exposure to antagonist ([1]; antagonist 1 μM, pre-exposure): −0.5+/−4.6%

Oc1cc2c(c(Cl)c1O)CCNCC2c1ccccc1 (stereo not shown) [SKF 81297]
effect on spike firing in cells perfused with Gβγ ([1]; 10 μM, intracellular Gβγ subunits 20 nM): significantly enhanced spike firing | effect on spike firing, agonist alone ([1]; 1-10 μM, alone): not altered | change in spike firing in neurons perfused with Gβγ vehicle plus maltose binding protein ([1]; control perfusion without Gβγ): −2.5+/−2.5%

CC(N)Cc1ccccc1 (stereo not shown) [amphetamine]
change in spike firing ([1]; 10 μM, bath application): 18.5+/−5.4%

C=C[C@@]1(C)CC(=O)[C@@H]2[C@@]3(C)CCCC(C)(C)[C@@H]3[C@H](O)[C@H](OC(C)=O)[C@@]2(C)O1 [dideoxy-forskolin]
effect on spike firing ([1]; 5 μM): had no effect

CCc1cc(Cl)c(OC)c(C(=O)NC[C@@H]2CCCN2CC)c1O [eticlopride]
change in spike firing with DA after pre-exposure to antagonist ([1]; antagonist 300 nM, pre-exposure): 2.5+/−5.5% | effect on DA-mediated enhancement of spike firing ([1]; antagonist 3 μM, pre-exposure): prevented

N[C@@H](CCC(=O)O)C(=O)O [glutamate]
effect on spike rate after exposure to 60 μM 4-AP ([1]; 200 μM, after 60 μM 4-AP): further increased spike rate

C=C1[C@@H](O)[C@@H]2O[C@]3(CC[C@H](/C=C/[C@@H](C)[C@@H]4CC(C)=C[C@@]5(O[C@H](C[C@@](C)(O)C(=O)O)CC[C@H]5O)O4)O3)CC[C@H]2O[C@@H]1[C@@H](O)C[C@H](C)[C@H]1O[C@@]2(CCCCO2)CC[C@H]1C [okadaic acid]
effect on DA-mediated changes in spike firing [1]: occluded | effect on spike firing, intracellular perfusion alone [1]: significantly enhanced | firing change with okadaic acid in the presence of 4-AP ([1]; ˜13 minutes pre-exposure to 60 μM 4-AP): 16+/−4.3%

CCCN1CCC[C@@H]2Cc3n[nH]cc3C[C@H]21 [quinpirole]
effect on spike firing in cells perfused with Gβγ [1]: not | effect on spike firing, agonist alone [1]: not altered | effect on spike rate, agonist alone [1]: no effect

DALRIQMEERFMASNPSKVSYEPIT [SPβγ]
effect on increase in spike firing elicited by D1/D2 co-activation ([1]; 200 μM): prevented | effect on activation of spike firing by forskolin [1]: not prevented

Norokadaone
effect on DA-mediated changes in spike firing [1]: did not prevent the effects of DA | effect on spike firing, intracellular perfusion alone [1]: had no effect by itself

YEDSYEDISAYLLSKNNAIPR [FVIII]
effect on increase in spike firing elicited by D1/D2 co-activation ([1]; 200 μM): had no effect | effect on activation of spike firing by forskolin [1]: not prevented

α-dendrotoxin (QPRRKLCILHRNPGRCYDKIPAFYYNQKKKQCERFDWSGCGGNSNRFKTIEECRRTCIG; UniProt P00980 1-59, looked up) [α-dtx]
effect on spike firing ([1]; 0.5 μM): significantly enhanced spike firing | effect on DA-mediated enhancement of spike firing (occlusion) ([1]; 0.5 μM pre-exposure): significantly occluded the effects of DA
